In patent US9604944B2, “Arylpiperazine derivatives and methods of utilizing same” (REVIVA PHARMACEUTICALS, INC., priority 2009, dated 2017):
Where a name gives a salt, the structure may show the parent alone.

How the values were obtained:
[1] = biological target: serotonin 5-HT2A receptor (Human Cortex) (Homo sapiens (Human), UniProt P28223); test: Serotonin, 5HT2A (human) binding assay; details: radioligand [3H]-Ketanserin
Method: Serotonin, 5HT2A (human) binding assay
Materials and Methods: • Receptor Source: Human Cortex • Radioligand: [^3H]-Ketanserin (60-90 Ci/mmol) • Control Compound: Ketanserin • Incubation Conditions: The reactions were carried out in 50 mM TRIS-HCl (pH 7.6) at room temperature for 90 minutes. The reaction was terminated by rapid vacuum filtration onto glass fiber filters. Radioactivity trapped onto the filters was determined and compared to control values in order to ascertain any interactions of test compounds with the serotonin-5HT2A binding site (Literature Reference: Leysen, J. E. et al. Mol. Pharmacol. 1982, 21, 301-314; Martin, G. R. and Humphrey, P. P. A. Neuropharmacol. 1994, 33(3/4), 261-273.)
(§1) The radioligand binding assays for dopamine-D2S, serotonin-5HT1A and serotonin-5HT2A were carried out at six different concentrations and the test concentrations were 0.5 nM, 1 nM, 10 nm, 100 nM, 300 nM and 1000 nM.

[2] = biological target: dopamine D2S receptor (human recombinant expressed in CHO cells) (Homo sapiens (Human), UniProt P14416); test: Dopamine, D2S (human recombinant) binding assay; details: radioligand [3H]Spiperone
Method: Dopamine, D2S (human recombinant) binding assay
Materials and Methods: • Receptor Source: Human recombinant expressed in CHO cells • Radioligand: [^3H]Spiperone (20-60 Ci/mmol) • Control Compound: Haloperidol • Incubation Conditions: The reactions were carried out in 50 mM TRIS-HCl (pH 7.4) containing 120 mM NaCl, 5 mM KCl, 5 mM MgCl2, 1 mM EDTA for 60 minutes at 25 C. The reaction was terminated by rapid vacuum filtration onto glass fiber filters. Radioactivity trapped onto the filters was determined and compared to control values in order to ascertain any interactions of test compounds with the cloned dopamine—D2 short binding site (Literature Reference: Jarvis, K. R. et al. Journal of Receptor Research 1993, 13(1-4), 573-590; Gundlach, A. L. et al. Life Sciences 1984, 35, 1981-1988.)
as §1

[3] = biological target: serotonin 5-HT1A receptor (human recombinant expressed in HEK-293 cells) (Homo sapiens (Human), UniProt P08908); test: Serotonin, 5HT1A (human recombinant) binding assay; details: radioligand [3H]-8-OH-DPAT; human recombinant in HEK-293 cells
Method: Serotonin, 5HT1A (human recombinant) binding assay
Materials and Methods: • Receptor Source: Human recombinant expressed in HEK-293 cells • Radioligand: [^3H]-8-OH-DPAT (221 Ci/mmol) • Control Compound: 8-OH-DPAT • Incubation Conditions: The reactions were carried out in 50 mM TRIS-HCl (pH 7.4) containing 10 mM MgSO4, 0.5 mM EDTA and 0.1% Ascorbic acid at room temperature for 1 hour. The reaction was terminated by rapid vacuum filtration onto glass fiber filters. Radioactivity trapped onto the filters was determined and compared to control values in order to ascertain any interactions of test compounds with the cloned serotonin—5HT1A binding site (Literature Reference: Hoyer, D. et al. Eur. Journal Pharmacol. 1985, 118, 13-23; Schoeffter, P. and Hoyer, D. Naunyn-Schmiedeberg's Arch. Pharmac. 1989, 340, 135-138)
as §1

Chain of serotonin 5-HT2A receptor (Human Cortex) (P28223 whole entry): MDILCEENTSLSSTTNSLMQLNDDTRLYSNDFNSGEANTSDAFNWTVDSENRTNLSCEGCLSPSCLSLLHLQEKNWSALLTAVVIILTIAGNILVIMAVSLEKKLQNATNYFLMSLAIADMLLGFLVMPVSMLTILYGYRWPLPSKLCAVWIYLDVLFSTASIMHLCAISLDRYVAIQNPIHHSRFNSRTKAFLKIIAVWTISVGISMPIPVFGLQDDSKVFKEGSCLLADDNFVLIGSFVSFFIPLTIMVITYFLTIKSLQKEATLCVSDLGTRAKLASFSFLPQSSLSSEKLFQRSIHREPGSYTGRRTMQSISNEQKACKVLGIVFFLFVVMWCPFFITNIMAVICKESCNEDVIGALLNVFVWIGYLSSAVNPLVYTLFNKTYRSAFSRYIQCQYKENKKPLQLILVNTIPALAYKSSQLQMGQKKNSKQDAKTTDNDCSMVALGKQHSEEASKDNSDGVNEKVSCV
Chain of serotonin 5-HT1A receptor (human recombinant expressed in HEK-293 cells) (P08908 whole entry): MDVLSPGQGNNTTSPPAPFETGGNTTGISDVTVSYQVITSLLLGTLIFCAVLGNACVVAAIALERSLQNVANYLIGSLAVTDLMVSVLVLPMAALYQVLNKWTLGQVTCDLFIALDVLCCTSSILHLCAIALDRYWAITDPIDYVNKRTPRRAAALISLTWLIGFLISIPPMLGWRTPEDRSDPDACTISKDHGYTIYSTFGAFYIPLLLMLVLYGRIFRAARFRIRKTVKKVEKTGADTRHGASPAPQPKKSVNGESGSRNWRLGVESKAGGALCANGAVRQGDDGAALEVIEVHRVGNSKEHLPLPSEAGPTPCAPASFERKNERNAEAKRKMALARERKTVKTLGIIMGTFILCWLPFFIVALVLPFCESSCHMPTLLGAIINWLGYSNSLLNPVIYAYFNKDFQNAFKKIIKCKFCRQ
Chain of dopamine D2S receptor (human recombinant expressed in CHO cells) (P14416 other isoform, or with tags, fused parts or gaps): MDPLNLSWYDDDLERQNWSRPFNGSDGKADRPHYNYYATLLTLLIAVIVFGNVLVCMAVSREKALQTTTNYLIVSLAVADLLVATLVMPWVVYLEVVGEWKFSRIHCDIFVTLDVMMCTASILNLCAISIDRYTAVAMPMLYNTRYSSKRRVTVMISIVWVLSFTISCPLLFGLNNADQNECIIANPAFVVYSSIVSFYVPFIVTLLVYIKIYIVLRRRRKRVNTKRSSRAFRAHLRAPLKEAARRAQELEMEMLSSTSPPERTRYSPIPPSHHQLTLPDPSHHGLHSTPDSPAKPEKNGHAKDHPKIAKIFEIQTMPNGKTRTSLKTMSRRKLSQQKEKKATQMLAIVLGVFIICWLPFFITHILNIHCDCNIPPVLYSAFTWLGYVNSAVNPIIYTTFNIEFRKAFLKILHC

| SMILES | IC50 [1] | Ki [1] | IC50 [2] | Ki [2] | IC50 [3] | Ki [3] |
| --- | --- | --- | --- | --- | --- | --- |
| COc1ccccc1N1CCN(CCCCOc2ccc3c(c2)NC(=O)CO3)CC1 [Compound 15a, 6-(4-(4-(2-Methoxyphenyl)piperazin-1-yl)butoxy)-2H-benzo[b][1,4]oxazin-3(4H)-one hydrochloride] | 262 nM | 118 nM | 0.98 nM | 0.3 nM | 0.97 nM | 0.65 nM |
| O=C1COc2ccc(OCCCCN3CCN(c4cccc(Cl)c4Cl)CC3)cc2N1 [Compound 15b, 6-(4-(4-(2,3-Dichlorophenyl)piperazin-1-yl)butoxy)-2H-benzo[b][1,4]oxazin-3(4H)-one hydrochloride] | 130 nM | 58.5 nM |  |  | 2.25 nM | 1.5 nM |
